Experimental data as given in the NIST ThermoML archive (doi:10.1016/j.tca.2011.10.030).

Assay: xn = mol fraction of the nth substance listed
Details: 101 kPa, Liquid; for viscosity: Capillary tube (Ostwald / Ubbelohde) method; for mass density: Vibrating tube method

CCCCCCn1cc[n+](C)c1.F[B-](F)(F)F [1-hexyl-3-methylimidazolium tetrafluoroborate] + CCCO
Details	mass density, 293.15 K [kg/m3]	mass density, 303.15 K [kg/m3]	mass density, 313.15 K [kg/m3]	mass density, 323.15 K [kg/m3]	mass density, 333.15 K [kg/m3]	viscosity, 293.15 K [mPa·s]	viscosity, 303.15 K [mPa·s]	viscosity, 313.15 K [mPa·s]	viscosity, 323.15 K [mPa·s]	viscosity, 333.15 K [mPa·s]
x1 = 0.1004	–	–	–	–	–	–	–	1.999	–	–
x1 = 0.1006	895.6	887.71	879.74	871.67	863.47	3.744	2.705	–	1.502	1.123
x1 = 0.199	955.99	948.28	940.53	932.73	924.86	6.294	4.518	3.364	2.585	1.99
x1 = 0.3002	1001.98	994.41	986.83	979.23	971.61	10.08	7.158	5.324	4.056	3.14
x1 = 0.4993	1065.02	1057.71	1050.43	1043.18	1035.95	23.7	16.37	11.84	8.808	6.76
x1 = 0.6309	1094.51	1087.38	1080.27	1073.19	1066.15	41.96	27.85	19.44	14.25	10.74
x1 = 0.7571	1116.98	1110.01	1103.05	1096.1	1089.2	73.7	46.65	31.26	21.97	16.09
x1 = 0.8894	1135.92	1129.14	1122.32	1115.51	1108.71	139.42	82.45	52.28	35.15	24.67
x1 = 1	1149.24	1142.48	1135.79	1129.08	1122.37	232.65	130.02	78.24	50.3	34.02
